SMILES strings stand for the structures.

In one experiment the target is T1, Aurora A kinase (Homo sapiens, UniProt O14965).
T1 construct: purchased Upstate
T1 sequence (O14965 1-403): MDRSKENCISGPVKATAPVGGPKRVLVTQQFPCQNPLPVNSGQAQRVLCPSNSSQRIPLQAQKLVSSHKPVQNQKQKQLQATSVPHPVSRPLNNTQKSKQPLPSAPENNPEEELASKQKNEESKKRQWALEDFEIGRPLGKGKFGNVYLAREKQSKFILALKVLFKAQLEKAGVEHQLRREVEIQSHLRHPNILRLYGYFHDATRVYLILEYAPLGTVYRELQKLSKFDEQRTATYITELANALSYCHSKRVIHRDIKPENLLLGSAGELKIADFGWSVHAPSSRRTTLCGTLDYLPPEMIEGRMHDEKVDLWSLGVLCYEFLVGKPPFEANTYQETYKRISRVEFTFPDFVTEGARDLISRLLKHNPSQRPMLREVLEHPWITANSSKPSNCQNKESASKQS
Kind of experiment: Aurora A kinase assay ([γ-33P]ATP, CHOCKtide substrate). In kind it is biochemical. As to conditions: for inhibition at 1 µM: 1.0 μM test compound. In short, it runs like this:
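Recombinant Aurora A (1 ng) or Aurora B (2.5 ng) incubated with test compound, CHOCKtide (1 μg) and [γ-33P]ATP/ATP at 10 μM (Aurora A) or 40 μM (Aurora B), 30 min at 33 °C. Stopped with phosphoric acid; filter-bound 33P counted; IC50 = half-maximal inhibition.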

In another experiment the target is T2, Flt3 kinase (Homo sapiens, UniProt P36888).
T2 construct: recombinant N-terminal 6×His-tagged Flt3 kinase domain construct expressed from baculovirus; 6xHis (N); made in house
T2 sequence (P36888 610-943 limits assumed): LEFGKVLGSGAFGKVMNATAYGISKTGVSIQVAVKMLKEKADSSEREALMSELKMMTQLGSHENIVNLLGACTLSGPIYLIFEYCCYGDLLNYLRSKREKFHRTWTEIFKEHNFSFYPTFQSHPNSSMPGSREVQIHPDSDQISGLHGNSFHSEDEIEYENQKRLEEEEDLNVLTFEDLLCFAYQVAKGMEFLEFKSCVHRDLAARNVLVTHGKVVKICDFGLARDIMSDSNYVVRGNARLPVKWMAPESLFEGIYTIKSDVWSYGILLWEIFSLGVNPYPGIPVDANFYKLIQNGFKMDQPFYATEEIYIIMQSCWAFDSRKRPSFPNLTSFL
Kind of experiment: Flt3 kinase assay (33P incorporation into Poly(Glu-Tyr)). In kind it is biochemical. To be noted: 100 nM test compound; read-out: Inhibition at 100 nM (%) Flt-3. In short, it runs like this:
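Baculovirus-expressed His-tagged Flt3 kinase domain (5 ng) with Poly(Glu-Tyr) 4:1 substrate, 100 μM ATP plus [33P]-γ-ATP, in MOPS pH 7.0 buffer, 30 min at 30 °C. Compound tested at a single 100 nM concentration; filter-bound radioactivity counted and percent inhibition calculated relative to DMSO control.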

For `CCOC(=O)CCc1c(/C=C2\C(=O)Nc3ccc(NC(=O)c4ccc(F)cc4)cc32)[nH]c2c1C(=O)CCC2` [DCB-70074, (Z)-5-(4-fluorobenzamido)-3-((3-(3-ethoxy-3-oxopropyl)-4-oxo-4,5,6,7-tetrahydro-1H-indol-2-yl)methylene)indolin-2-one], on Aurora A kinase, the inhibition (in general, the relative decrease from the control value, in per cent) at 1 µM was 19.3%. In addition, on Flt3 kinase, the inhibition at 0.1 µM is -1.3%.
For `O=C(O)CCc1c(/C=C2\C(=O)Nc3cc(-c4ccc(O)cc4)ccc32)[nH]c2c1C(=O)CCC2` [DCB-70075, (Z)-6-(4-hydroxyphenyl)-3-((3-carboxyethyl-4-oxo-4,5,6,7-tetrahydro-1H-indol-2-yl)methylene)indolin-2-one], on Aurora A kinase, half-maximal inhibition (IC50) required 86.3 nM and the inhibition at 1 µM was determined as 92.4%. On Flt3 kinase, the inhibition at 0.1 µM is 63.5%.
With `O=C(O)CCc1c(/C=C2\C(=O)Nc3ccc(NC(=O)c4ccc(F)cc4)cc32)[nH]c2c1C(=O)CCC2` [DCB-70076, (Z)-5-(4-fluorobenzamido)-3-((3-carboxyethyl-4-oxo-4,5,6,7-tetrahydro-1H-indol-2-yl)methylene)indolin-2-one], the inhibition at 1 µM against Aurora A kinase amounted to 40.7%. Moreover, at Flt3 kinase, the inhibition at 0.1 µM is -3.1%.
With `CCOC(=O)CCc1c(/C=C2\C(=O)Nc3cc(-c4ccc(O)c(O)c4)ccc32)[nH]c2c1C(=O)CCC2` [DCB-70077, (Z)-6-(3,4-dihydroxyphenyl)-3-((3-(3-ethoxy-3-oxopropyl)-4-oxo-4,5,6,7-tetrahydro-1H-indol-2-yl)methylene)indolin-2-one], on Aurora A kinase, the inhibition at 1 µM came out at 57%. In addition, the inhibition at 0.1 µM at Flt3 kinase was found to be 58.4%.
As to `O=C(O)CCc1c(/C=C2\C(=O)Nc3cc(-c4ccc(O)c(O)c4)ccc32)[nH]c2c1C(=O)CCC2` [DCB-70078, (Z)-6-(3,4-dihydroxyphenyl)-3-((3-carboxyethyl-4-oxo-4,5,6,7-tetrahydro-1H-indol-2-yl)methylene)indolin-2-one], on Aurora A kinase, half-maximal inhibition (IC50) was put at 46.1 nM and the inhibition at 1 µM worked out at 91.6%. Besides, at Flt3 kinase, the inhibition at 0.1 µM was 75%.
With `CCOC(=O)CCc1c(/C=C2\C(=O)Nc3cc(-c4cc5ccccc5s4)ccc32)[nH]c2c1C(=O)CCC2` [DCB-70079, (Z)-6-(benzo[b]thiophen-2-yl)-3-((3-(3-ethoxy-3-oxopropyl)-4-oxo-4,5,6,7-tetrahydro-1H-indol-2-yl)methylene)indolin-2-one], the inhibition at 1 µM at Aurora A kinase is 8.8%. Further, the inhibition at 0.1 µM on Flt3 kinase worked out at 1.1%.
In the same order, the values of `O=C(O)CCc1c(/C=C2\C(=O)Nc3cc(-c4cc5ccccc5s4)ccc32)[nH]c2c1C(=O)CCC2` [DCB-70080, (Z)-6-(benzo[b]thiophen-2-yl)-3-((3-carboxyethyl-4-oxo-4,5,6,7-tetrahydro-1H-indol-2-yl)methylene)indolin-2-one] are 40.3% and 7.4%.
Taken in the same sequence, the figures for `CCOC(=O)CCc1c(/C=C2\C(=O)Nc3cc(-c4ccc(O)c(OC)c4)ccc32)[nH]c2c1C(=O)CCC2` [DCB-70081, (Z)-6-(4-hydroxy-3-methoxyphenyl)-3-((3-(3-ethoxy-3-oxopropyl)-4-oxo-4,5,6,7-tetrahydro-1H-indol-2-yl)methylene)indolin-2-one] were 27.7% and 30%.
In the case of `COc1cc(-c2ccc3c(c2)NC(=O)/C3=C\c2[nH]c3c(c2CCC(=O)O)C(=O)CCC3)ccc1O` [DCB-70082, (Z)-6-(4-hydroxy-3-methoxyphenyl)-3-((3-carboxyethyl-4-oxo-4,5,6,7-tetrahydro-1H-indol-2-yl)methylene)indolin-2-one], on Aurora A kinase, half-maximal inhibition (IC50) required 224 nM and the inhibition at 1 µM was 81.7%. Besides, the inhibition at 0.1 µM on Flt3 kinase amounted to 35.1%.
With `CCOC(=O)CCc1c(C=C2C(=S)Nc3ccccc32)[nH]c2c1C(=O)CCC2` [DCB-70083, 3-((3-(3-ethoxy-3-oxopropyl)-4-oxo-4,5,6,7-tetrahydro-1H-indol-2-yl)methylene)indolin-2-thione], the inhibition at 1 µM against Aurora A kinase came to 13.2%. Also, on Flt3 kinase, the inhibition at 0.1 µM turned out to be 16%.
In the same order, the values of `O=C(O)CCc1c(C=C2C(=S)Nc3ccccc32)[nH]c2c1C(=O)CCC2` [DCB-70084, 3-((3-carboxyethyl-4-oxo-4,5,6,7-tetrahydro-1H-indol-2-yl)methylene)indolin-2-thione] are 10.9% and -2.6%.
Take `CCOC(=O)CCc1c(C=C2C(=S)Nc3cc(Br)ccc32)[nH]c2c1C(=O)CCC2` [DCB-70085, 6-bromo-3-((3-(3-ethoxy-3-oxopropyl)-4-oxo-4,5,6,7-tetrahydro-1H-indol-2-yl)methylene)indolin-2-thione]: on Aurora A kinase, the inhibition at 1 µM was found to be 11.2%. Moreover, at Flt3 kinase, the inhibition at 0.1 µM is 18.2%.
Taken in the same sequence, the figures for `O=C(O)CCc1c(C=C2C(=S)Nc3cc(Br)ccc32)[nH]c2c1C(=O)CCC2` [DCB-70086, 6-bromo-3-((3-carboxyethyl-4-oxo-4,5,6,7-tetrahydro-1H-indol-2-yl)methylene)indolin-2-thione] were 5.8% and 0.5%.
Regarding `O=C(O)CCc1c(/C=C2\C(=O)Nc3ccc(S(=O)(=O)N4CCCC4)cc32)[nH]c2c1C(=O)CCC2` [DCB-70087, (Z)-5-(pyrrolidin-1-ylsulfonyl)-3-((3-carboxyethyl-4-oxo-4,5,6,7-tetrahydro-1H-indol-2-yl)methylene)indolin-2-one], at Aurora A kinase, inhibition was half-maximal at 7.3 nM (IC50) and the inhibition at 1 µM worked out at 99.7%. The inhibition at 0.1 µM on Flt3 kinase was 1.4%.
In the same order, the values of `O=C(O)CCc1c(/C=C2\C(=O)Nc3ccc(S(=O)(=O)N4CCOCC4)cc32)[nH]c2c1C(=O)CCC2` [DCB-70088, (Z)-5-morpholinosulfonyl-3-((3-carboxyethyl-4-oxo-4,5,6,7-tetrahydro-1H-indol-2-yl)methylene)indolin-2-one] are 28.8 nM, 99.3% and -2.1%.
Consider `CCOC(=O)CCc1c(/C=C2\C(=O)Nc3ccc(NC(=O)Nc4ccc(C)cc4)cc32)[nH]c2c1C(=O)CCC2` [DCB-70091, (Z)-5-(3-p-tolylureido)-3-((3-(3-ethoxy-3-oxopropyl)-4-oxo-4,5,6,7-tetrahydro-1H-indol-2-yl)methylene)indolin-2-one], for which, on Aurora A kinase, the inhibition at 1 µM came to 7.6%. The inhibition at 0.1 µM on Flt3 kinase is 11.1%.
In the same order, the values of `CCOC(=O)CCc1c(/C=C2\C(=O)Nc3ccc(NC(=O)Nc4ccc(OC)cc4)cc32)[nH]c2c1C(=O)CCC2` [DCB-70092, (Z)-5-(3-(4-methoxyphenyl)ureido)-3-((3-(3-ethoxy-3-oxopropyl)-4-oxo-4,5,6,7-tetrahydro-1H-indol-2-yl)methylene)indolin-2-one] are 9.4% and 22.5%.
Taken in the same sequence, the figures for `Cc1ccc(NC(=O)Nc2ccc3c(c2)/C(=C/c2[nH]c4c(c2CCC(=O)O)C(=O)CCC4)C(=O)N3)cc1` [DCB-70093, (Z)-5-(3-p-tolylureido)-3-((3-carboxyethyl-4-oxo-4,5,6,7-tetrahydro-1H-indol-2-yl)methylene)indolin-2-one] were 70.5% and 44.7%.
Taken in the same sequence, the figures for `COc1ccc(NC(=O)Nc2ccc3c(c2)/C(=C/c2[nH]c4c(c2CCC(=O)O)C(=O)CCC4)C(=O)N3)cc1` [DCB-70094, (Z)-5-(3-(4-methoxyphenyl)ureido)-3-((3-carboxyethyl-4-oxo-4,5,6,7-tetrahydro-1H-indol-2-yl)methylene)indolin-2-one] were 75.2% and 52.8%.

These data come from patent publication US7897602B2, “Indolinone compounds as kinase inhibitors” (Development Center for Biotechnology, priority 2009, dated 2011).
